Results on 13 compounds are retold here after ChEMBL document CHEMBL1159228, “The 1994 Japan-U.S. Seminar on Bioorganic Marine Chemistry, Meeting Report” (J Nat Prod, 1995).

Series [1] can be described thus: Inhibition of inosine-5'-monophosphate dehydrogenase.
For the next series, the system named is L1210. In words: Cytotoxicity against mouse L1210 cells. The class given is functional, cell-based.
The nature of series [2]: Molluscicidal activity against common snail. The series is classed as organism-based. Particulars: cornu aspersum, in vivo; read-out: LD50 (the source's name).
Series [3] is described as follows: Ichthyotoxicity against Carassius auratus. The series is classed as organism-based. Particulars: in vivo.
For series [4], the system named is P388. Put plainly: In vivo cytotoxicity against mouse P388 cells relative to control. The series is classed as functional.
Series [5] concerns B16. In words: In vivo cytotoxicity against mouse B16 cells relative to control. The class given is functional.
The subject of a further series is M5076. Put plainly: In vivo cytotoxicity against mouse M5076 cells relative to control. The class given is functional.
Series [6] in a line: In vivo cytotoxicity against mouse LLC cells relative to control. The class given is functional, Lewis lung carcinoma.
The subject of series [7] is P388. In words: Cytotoxicity against mouse P388 cells. The series is classed as functional, cell-based.
In series [8] the test system is P388. In words: In vivo cytotoxicity against mouse P388 cells at 80 ug/kg relative to control. The class given is functional.
A further series relates to Colon 26. In words: In vivo cytotoxicity against mouse Colon 26 cells at 80 ug/kg relative to control. The series is classed as functional.
A short description of series [9]: In vivo cytotoxicity against mouse LLC cells at 40 ug/kg relative to control. The series is classed as functional, Lewis lung carcinoma.
Series [10] can be described thus: In vivo cytotoxicity against mouse EAC cells at 40 ug/kg relative to control. The class given is functional, Ehrlich.
Series [11] has as its system B16. Put plainly: In vivo cytotoxicity against mouse B16 cells at 40 ug/kg relative to control. The class given is functional.

Converted amounts (≈) assume the structure as drawn.

The IC50 is the concentration that inhibits the measured activity by half. A higher IC50 goes with weaker potency. In series [1], `CC1=C(O)/C(=C/C(C)CCCC(C)/C=C/C=C(\C)CCCc2ccoc2)OC1=O` (stereo unspecified) [FASCICULATIN] displayed a concentration for half-maximal inhibition (IC50) of 1000 µM.
`C/C=C\[C@H](C)[C@@H]1O[C@]1(C)[C@@H](O)[C@@H](C)C(=O)[C@@H](CO)[C@@H](O)CC(=O)CC` registered an IC50 with L1210 of 100 ng/mL (≈ 281 nM).
Consider `CO/C(=C\C(=O)N(C)[C@@H](Cc1ccccc1)c1nccs1)C[C@H](C)C(Cl)(Cl)Cl` [BARBARAMIDE A], for which the LC50 in series [2] was below 100000 ng/mL.
In series [3], `C=C(CCNC(=O)CC/C=C/C[C@H](CCCCCCC)OC)[C@@]12O[C@@H]1CC=C(C)C2=O` [MALYNGAMIDE H] gave an LC50 of 25000 ng/mL (≈ 57900 nM).
A word on the T/C: it is the ratio of treated to control. Turning to `COc1c(C)cc2c(c1O)[C@@H]1[C@@H]3[C@H]4SCC(N)C(=O)OC[C@@H](c5c(O)c(OC)c(C)c(OC(C)=O)c54)N3[C@@H](O)[C@H](C2)N1C` (stereo partly specified), the T/C with P388 [4] was 213%; in the series with B16 [5], 241%; in the series with M5076 it was 210%; in series [6], 0%.
Turning to `C#CC(O)/C=C/CCCCCCCCC/C=C\CCCCCCCCCCCC/C=C\CC#CC(=O)O` (stereo unspecified), in [1], the IC50 was determined as 1000 µM.
Consider `C[C@@H]1[C@@]2(CC[C@](C)(O)CO2)O[C@H]2C=C3[C@@H]4[C@@H](O)C[C@H]5Cc6nc7c(nc6C[C@]5(C)[C@H]4C[C@@H](O)[C@]3(C)[C@]21O)C[C@@H]1CC[C@@H]2[C@H](CC(=O)[C@]23C[C@@H]2O[C@@]4(CCC(C)(C)O4)[C@@H](C)[C@@H]2[C@]3(C)O)[C@@]1(C)C7` [RITTERAZINE A], for which the midpoint of inhibition in the series with P388 [7], the IC50, lay at 0.018 ng/mL (≈ 0.0197 nM).
In turn, `O=C1NCCc2cc(Br)c(O)c(c2)Oc2ccc(cc2Br)[C@H](O)CNC(=O)/C(=N/O)Cc2cc(Br)c(O)c(c2)Oc2c(Br)cc(cc2Br)C/C1=N\O` [BASTADIN 8] returned an IC50 in [1] of 1000 µM.
In the series with L1210, `C=C1C(O)CC(=O)C(C)/C=C(\C)C[C@@H](O)[C@]2(O)O[C@H](CC[C@H]2O)CC(O)CCC(O)C(CCCC)OC(=O)C(C)C(O)C2OC12` (stereo partly specified) [AMPHIDINOLIDE N] came in with an IC50 of 0.05 ng/mL (≈ 0.0778 nM).
In the case of `COCC(C(=O)O[C@@H]1C/C=C/C=C/C(=O)O[C@H]([C@@H](C)[C@@H](O)[C@@H](C)CC[C@@H](OC(=O)C(C)N(C)C)[C@H](C)[C@H](OC(C)=O)[C@H](C)/C=C/N(C)C=O)C/C=C/[C@H](OC)C[C@H](C)C/C=C(\C)[C@@H](OC)CC[C@@H](C)[C@@H](O)[C@@H]1C)N(C)C` (stereo partly specified) [APLYRONINE A], the T/C in the series with P388 [8] came to 545%; in the series with Colon 26, 255%; in [9], 556%; in series [10] it was 398%; in the series with B16 [11], 201%.
In the case of `COc1cc2c(cc1O)CCN[C@]21CS[C@@H]2c3c(OC(C)=O)c(C)c4c(c3[C@H](COC1=O)N1[C@@H]2[C@H]2c3c(cc(C)c(OC)c3O)C[C@@H]([C@@H]1O)N2C)OCO4` [TRABECTEDIN], the T/C in the series on P388 [4] is reported as 213%; with B16 [5], 241%; in the series with M5076 it was 210%; in series [6] it was 0%.
The like results for `COc1c(C)cc2c(c1O)[C@@H]1[C@@H]3[C@H]4SCC(=O)C(=O)OC[C@@H](c5c(O)c(OC)c(C)c(OC(C)=O)c54)N3[C@@H](O)[C@H](C2)N1C` were, in that order, 213%, 241%, 210% and 0%.
Compound `Oc1c(Oc2c(O)c(Br)c(Br)c(Br)c2Br)cc(Br)c(Br)c1Br` returned a 50% inhibitory concentration (IC50) in series [1] of 1000 µM.
